Earlier results in patent US20260364145A1, “MODIFIED CAVEOLIN-1 PEPTIDE FORMULATIONS AND METHODS OF MANUFACTURING AND USE THEREOF” (REIN THERAPEUTICS, INC., priority 2023, published 2026).

How the values were obtained:
Conditions in all cases: cited from earlier work
[1] = tested on: Cav-1 interaction with SRC kinases
[2] = tested on: Wnt-signaling, β-catenin-mediated transcription, activation of SRC, EGFR, MEK1 and ERK-2
[3] = tested on: fibrosis

**Q.** For DGIWKASFTTFTVTKYWFYR [CSP 20-mer], which “effect on Cav-1 interaction with SRC kinases” value [1] is on record?
**A.** interferes with Cav-1 interaction with SRC kinases

**Q.** And the effect on signaling [2]?
**A.** inhibition of Wnt-signaling, β-catenin-mediated transcription, activation of SRC, EGFR, MEK1 and ERK-2

**Q.** What about the effect on fibrosis ([3]; animal models) of the same sequence?
**A.** prevent, limit, or reverse fibrosis in animal models

**Q.** And the “effect on lung aSMA, epithelial apoptosis, collagen and profibrogenic signaling” value ([3]; in vivo)?
**A.** reduced lung aSMA and lung epithelial apoptosis, reduced collagen deposition, and down-regulation of expression of profibrogenic signaling molecules
